Test results published in a melting point compilation (Tetko et al.).

Structure (SMILES)	melting point
OCc1cnc(-c2ccco2)o1	99 to 101 °C
Cn1nc(Br)c(C(=O)NCC(=O)O)c1N	239 to 241 °C
NC(=NO)c1ccc(N2CCC(O)CC2)cc1	169 to 171 °C
Nc1nnc(-c2ccsc2)s1	211 to 213 °C
Nc1cc(C2CC2)no1	52 to 54 °C
O=C(O)c1cccnc1NC1CCCC1	222 to 224 °C
COc1ccc(S(=O)(=O)Cl)cc1Cl	80 to 82 °C
O=S(=O)(Cl)c1ccc2nc(Cl)ccc2c1	138 to 140 °C
CN(C)C(=O)c1ccc(Cl)c(S(=O)(=O)Cl)c1	106 to 108 °C
Nc1ncc(Cc2ccc(F)c(F)c2)s1	97 to 99 °C
Cc1ccc2c(C3CCNCC3)c[nH]c2c1	176 to 178 °C
CC(=O)c1ccc(OC(C)C)cc1	42 to 44 °C
O=C(O)C1CCSCC1	109 to 111 °C
Cn1c(S)nc2sc3c(c2c1=O)CCCC3	304 to 306 °C
Cc1cn2c(CC(=O)O)csc2n1	211 to 213 °C
Nc1cccc([N+](=O)[O-])c1C(=O)O	143 to 145 °C
Cc1nn(Cc2ccc(Cl)cc2)c(O)c1C=O	179 to 181 °C
CC(C)(C)NC(=O)c1ccccc1N	124 to 125 °C
CC(=O)c1c(C)nn(C(C)C)c1C	74 to 76 °C
COc1ccc(C(=O)O)cc1S(=O)(=O)NC1CCCCC1C (stereo not given)	201 to 203 °C
CC1(C)CNCCS1(=O)=O	46 to 48 °C
Cc1cc(C(=O)O)nc(-c2ccc(Cl)cc2)n1	163 to 165 °C
O=C(O)Cn1nnc(-c2ccccc2)n1	180 to 182 °C
N#CCS(=O)(=O)c1ccc(C(=O)O)cc1	236 to 238 °C
O=C(O)c1ccc(C=C2NC(=S)N(c3ccc(F)cc3)C2=O)cc1	349 to 351 °C
CC(C)c1n[nH]c(C(=O)O)c1Br	195 to 197 °C
Cc1ccc(-c2nc(N)sc2CC(=O)O)cc1	218 to 222 °C

Structure (SMILES)	melting point
O=C(c1ccc(Cl)cc1)c1ccccn1	63 to 65 °C
O=C(O)c1cc(=O)n(-c2ccc([N+](=O)[O-])cc2)[nH]1	225 to 227 °C
CNC(C)C(=O)O (stereo not given)	268 to 270 °C
O=C(NC(Cc1c[nH]c2ccccc12)C(=O)O)c1ccc(F)cc1 (stereo not given)	95 to 98 °C
CC(C)Oc1ccc(C(N)=S)cc1	152 to 154 °C
COC(=O)c1sc2ncc(C=O)cc2c1C	199 to 201 °C
O=C(O)c1ccc(S(=O)(=O)Cl)c(F)c1	188 to 190 °C
CN(C)C=C1C(=O)CCC1=O	89 to 91 °C
CN(C)C(C(=O)O)c1cccnc1 (stereo not given)	184 to 186 °C
Cc1cccc(F)c1C#N	45 to 47 °C
NS(=O)(=O)c1ccc(NCC(=O)O)cc1	239 to 241 °C
CC(c1nnc(S)n1-c1ccc(F)cc1)N(C)C (stereo not given)	169 to 171 °C
CCOC(=O)c1sc(NCCCC(=O)O)nc1-c1ccccc1	120 to 122 °C
CCOC(=O)c1ccncc1N	173 to 175 °C
O=c1ccnc(-c2cccc(O)c2)[nH]1	229 to 231 °C
CNc1nc(C)cs1	69 to 71 °C
CC(C)(C)c1ccc(S(N)(=O)=O)s1	80 to 82 °C
Cc1nnc(S)n1N	186 to 188 °C
Nc1c(C(=O)O)[nH]c(=O)[nH]c1=O	300 to 302 °C
CCC(CO)N1CCNCC1 (stereo not given)	78 to 80 °C
Cc1ccc(N)c2cccnc12	144 to 146 °C
O=C(O)Cn1nc(-c2ccccc2)ccc1=O	237 to 239 °C
COc1ccc2c(c1)-c1sc(N)nc1CC2	179 to 181 °C
N#Cc1cnc(C(=O)O)c(Cl)c1	149 to 151 °C
CC(C)(C)OC(=O)N[C@H]1C[C@H](N)C1	60 to 62 °C
CN1C(=C(C#N)C(=O)CCl)Nc2ccccc21	244 to 246 °C
CCNC(=O)c1ccc(N)cc1	73 to 75 °C

Structure (SMILES)	melting point
O=C(CN1C(=O)CCC1=O)c1ccccc1Cl	118 to 120 °C
CC(Oc1ccc(Br)cc1F)C(=O)O (stereo not given)	113 to 115 °C
Nc1cccc(-c2ccc3c(c2)CCO3)c1	64 to 66 °C
Nc1nc2c(s1)CCCCCC2	202 to 204 °C
Cc1nn(C2CCOC2)cc1C(=O)O (stereo not given)	163 to 165 °C
Cc1ccsc1-c1nnc(S)o1	211 to 213 °C
CCCC(N)c1nnn[nH]1 (stereo not given)	277 to 279 °C
CC(NC(=O)OC(C)(C)C)C(N)=NO (stereo not given)	139 to 141 °C
CCN(CC)Cc1csc(N)n1	64 to 66 °C
Cc1cc(C(=O)O)c2c(CC(C)(C)C)noc2n1	224 to 226 °C
Cc1cc(Br)cc2cc(C(=O)C(C)C)oc12	69 to 71 °C
C=CC(=O)Nc1cc(N)ccc1F	135 to 137 °C
O=C(O)Cc1cccc(OCc2ccc(Cl)cc2)c1	126 to 128 °C
Cc1cc(C(=O)O)ccc1N1CCNC1=O	279 to 281 °C
COC(=O)C1CCN(c2nc3ccccc3o2)CC1	106 to 108 °C
Cc1ccc(C(=O)O)cc1S(=O)(=O)NCC#N	212 to 214 °C
Cc1ccc(N)c(OCCN(C)C)c1	51 to 53 °C
O=C1CCCc2sc(Br)cc21	76 to 78 °C
NC(CC(=O)O)c1cnn(-c2ccccc2)c1 (stereo not given)	219 to 221 °C
NC(=O)C1CCN(c2ccccc2N)CC1	199 to 201 °C
CC(C)Oc1ccc(Cl)c(C(=O)O)n1	70 to 72 °C
CS(=O)c1ccc(N)cc1F (stereo not given)	109 to 111 °C
Cc1cc(CC(=O)O)c(C)n1-c1ccc(Cl)cc1	118 to 120 °C
CC(C(=O)O)c1ccc(Cl)c(Cl)c1 (stereo not given)	39 to 41 °C
CC(C)Oc1cccc(C(O)CN)c1 (stereo not given)	52 to 54 °C
O=C(Nc1ccc(Cl)cn1)Nc1ccccc1C(=O)O	245 to 247 °C
Nc1cc(Cl)cc(Br)c1O	83 to 85 °C

Structure (SMILES)	melting point
Cc1ccccc1-c1nc(C(=O)O)cs1	119 to 121 °C
O=C(O)Cc1csc(N2CCCNC2=O)n1	184 to 186 °C
CC(Cl)C(=O)Nc1ccc(S(=O)(=O)N2CCCCC2)cc1 (stereo not given)	130 to 135 °C
CC(C)(C)OC(=O)NC1(C(N)=NO)CCCC1	168 to 170 °C
O=C(O)CNc1ccc(C(F)(F)F)cn1	134 to 136 °C
Cc1nnc2[nH]nc(N)c2c1C	264 to 266 °C
Fc1nc(C(F)(F)F)ccc1I	48 to 50 °C
CNC1(C(=O)O)CCCCC1	309 to 311 °C
Cc1ccc(C2CCCCC2O)cc1 (stereo not given)	72 to 74 °C
CCOC(=O)c1c[nH]n2c1nc(=O)c1ccccc12	201 to 203 °C
CCCc1nnc(N)s1	198 to 202 °C
O=C(Nc1ccc(O)c(C(=O)O)c1)c1cc(Cl)cc(Cl)c1	288 to 290 °C
Nn1cnc2c(cnn2-c2ccccc2)c1=O	233 to 235 °C
Cc1cc(C=O)ccc1-n1cncn1	104 to 106 °C
CNC1CC(=O)N(Cc2ccccc2)C1=O (stereo not given)	72 to 74 °C
O=C(O)CCNc1ccccc1[N+](=O)[O-]	144 to 146 °C
OC1CCN(c2ccc(Cl)nn2)CC1	109 to 111 °C
CCCc1ccc(N2CC(C(=O)O)CC2=O)cc1 (stereo not given)	136 to 138 °C
NC(=S)c1cc(Br)cs1	199 to 201 °C
Nc1ccccc1S(=O)(=O)C(F)F	65 to 67 °C
O=C(O)c1ccccc1S(=O)(=O)C(F)(F)F	107 to 109 °C
N#Cc1ccc(N2CCCC(Br)C2=O)cc1 (stereo not given)	124 to 126 °C
Cc1ccc(C)c(-n2nnnc2S)c1	129 to 131 °C
NC(=O)c1ccc(N)c(F)c1	152 to 154 °C
